# Article PMC11459966, “Oral pharmacokinetics and efficacy of oral phospholipid remdesivir nucleoside prodrugs against SARS-CoV-2 in mice” (Antimicrobial Agents and Chemotherapy, 2024)
# Like-named read-outs stand apart in the source and are kept apart here.
# What was measured:
# [1] = test system: SARS-CoV-2 isolate USA-WA1/2020; assay: microbe, parasite or virus in culture; format: cell-based; settings: Severe acute respiratory syndrome coronavirus 2; Calu-3 cells, 44–48 hpi
# [2] = Cell viability assay (CellTiter-Glo), Vero-TMPRSS2; format: cell-based, African green monkey; settings: African green monkey, Vero-TMPRSS2 cells, 48 h incubation
# Protocol: Cell viability assays (Table 1) were performed as previously described ([7]). Cells were cultured and seeded as per in vitro antiviral studies in opaque walled 96-well cell culture plates and incubated overnight for Huh7.5, A2T2-A549, and Vero-E6-TMPRSS2 cells and for 2 days for Calu-3 cells. Compounds or controls were added at the indicated concentrations in a total volume of 100 µL, and cells were incubated for 48 h. An equal volume of CellTiter-Glo reagent (Promega, Cat. #G7570) or CellTiter-Glo 2.0 reagent (Promega, Cat. #G9241) was added and mixed, and luminescence was recorded on a Veritas Microplate Luminometer (Turner BioSystems) or a Spark Multimode plate reader (Tecan) according to manufacturer instructions. Percent viability was normalized to DMSO controls, and CC50 values were derived from best fit curves calculated in Prism 10.
# [3] = test system: SARS-CoV-2 isolate USA-WA1/2020; settings: A2T2-A549
# [4] = test system: SARS-CoV-2 isolate USA-WA1/2020; settings: Vero-TMPRSS2
# [5] = test system: SARS-CoV-2 isolate USA-WA1/2020; assay: microbe, parasite or virus in culture
# [6] = test system: SARS-CoV-2 isolate USA-WA1/2020; assay: microbe, parasite or virus in culture; remark: listed apart in the source
# [7] = test system: SARS-CoV-2 isolate USA-WA1/2020; assay: microbe, parasite or virus in culture; remark: listed apart in the source
# [8] = Cell viability assay (CellTiter-Glo), Calu-3; settings: human, Calu-3 cells
# [9] = Cell viability assay (CellTiter-Glo), Huh7.5; settings: human, Huh7.5 cells
# [10] = Cell viability assay (CellTiter-Glo), A2T2-A549; settings: human, A2T2-A549 cells
smiles,measurement,setting,value
"N#C[C@@]1(c2ccc3c(N)ncnn23)O[C@H](CO)[C@@H](O)[C@H]1O [RVn, reference compound]",EC50,[1],0.665 ± 0.284 µM
same,EC90,[1],1.89 ± 0.497 µM
same,CC50 at 48 h,[2],> 100 µM
same,SI (CC50/EC50),[3],>33
same,SI (CC50/EC50),[4],>92
same,EC50,"[5]; Severe acute respiratory syndrome coronavirus 2, read-out: EC50 μM ± SD",3.01 ± 0.038 µM
same,EC90,"[5]; Severe acute respiratory syndrome coronavirus 2, read-out: EC90 μM ± SD",4.49 ± 0.256 µM
same,EC50,"[6]; Severe acute respiratory syndrome coronavirus 2, Huh7.5, read-out: EC50 μM ± SD",1.36 ± 0.544 µM
same,EC90,"[6]; Severe acute respiratory syndrome coronavirus 2, Huh7.5, read-out: EC90 μM ± SD",2.96 ± 0.866 µM
same,EC50,"[7]; Severe acute respiratory syndrome coronavirus 2, Vero/TMPRSS2, read-out: EC50 μM ± SD",1.08 ± 0.264 µM
same,EC90,"[7]; Severe acute respiratory syndrome coronavirus 2, Vero/TMPRSS2, read-out: EC90 μM ± SD",2.43 ± 0.692 µM
same,CC50 at 48 h,[8],> 100 µM
same,CC50 at 48 h,[9],> 100 µM
same,CC50 at 48 h,[10],> 100 µM
